Results as given in patent EP0343223B1, “USE OF MELATONIN OR DERIVATIVES THEREOF FOR THE PRODUCTION OF PHARMACEUTICAL COMPOSITIONS EFFECTIVE TO COUNTERACT THE EFFECTS OF AGING” (priority 1987, dated 1989).

How the values were obtained:
Format in all cases: in vivo
[1] = system: C57BL/6J inbred male mice; experiment: Nocturnal oral melatonin in the drinking water of aging mice: life span and body weight
Procedure: Experiments were initiated in 1985 in which groups of C57BL/6J inbred male mice, aged 575 days (10 mice per group), were given melatonin (10 µg/ml) in the drinking water while the controls received tap water containing the same amount of absolute ethanol used to prepare melatonin stock solution (1 ml ethanol in 10 liters of tap water). The drinking water with or without melatonin was given at 6 p.m. and removed at 8.30 a.m. The drinking water was changed twice weekly. Starting at 5 months after initiation of the nocturnal, oral melatonin treatment, when the mice reached two years of age, a striking difference of body weight and of general body and pelage conditions started to be evident. Although some of the mice died earlier in both groups, the majority of the surviving mice treated with melatonin maintained their optimal body weight until 28 to 33 months of age (35.8± 4 grams) while the untreated mice lost progressively weight and were all dead within 29 months of age. Average body weight of the control mice at 27 months of age was 27.8± 4 grams.
The last melatonin-treated mouse died at 3 years of age. These date though preliminary make it evident that melatonin treatment of aging mice prolonged their life or circa 20 percent (average 6 months longer). The life span of melatonin-treated mice was 931 ± 80 days while that of control mice was 755 ± 81 days (p < 0.01).

T3 and T4 = T3 and T4 by radioimmunoassay in serum of aging mice after chronic night melatonin in drinking water
Excerpt: It can be seen (Table 1) that chronical treatment with melatonin in the drinking water in aging mice elevates the levels of T3 ([…]) and T4 (tyroxine) in their peripheral blood and corrects thus ageing-related thyroid dysfunction or lowered function.

lipids in blood = experiment: Lipids in blood of aging mice after chronic night melatonin treatment; conditions: data not shown
Excerpt: It follows that the increase of the production of thyroid hormones induced in vivo by exogenous melatonin should also be accompanied by an improved degradation of cholesterol, triglycerides and phospholipids and by detoxification effects at the liver level, all these beneficial effects resulting in a slowing down of the aging process.

[2] = C3H/He female, age 23 months, 3 months of melatonin treatment
[3] = C3H/He female, age 23 months, 3 months of melatonin treatment, serum
[4] = C57BL/6 female, age 22 months, 5 months of melatonin treatment

Q: Which “age at death of the last melatonin-treated mouse” value ([1]; C57BL/6J male mice) does the source give for `COc1ccc2[nH]cc(CCNC(C)=O)c2c1` [melatonin] here?
A: 3 years

Q: And the life span ([1]; C57BL/6J male mice, melatonin 10 µg/ml in drinking water 6 p.m. to 8.30 a.m., from 575 days of age, p < 0.01 vs control)?
A: 931 ± 80 days

Q: What about the body weight ([1]; surviving melatonin-treated mice, maintained until 28 to 33 months of age, 10 µg/ml in drinking water at night, started at 575 days of age) of the same compound?
A: 35.8± 4 grams

Q: What about the “average life prolongation (longer)” value ([1]; versus control mice) of the same compound?
A: 6 months

Q: And the prolonged their life ([1]; versus control mice)?
A: circa 20%

Q: And the “T3 change vs untreated” value (T3 and T4; [2])?
A: +25%

Q: And the T4/T3 (T3 and T4; [2])?
A: 42.47

Q: And the “T4/T3 change vs untreated” value (T3 and T4; [2])?
A: +18%

Q: And the “T4 change vs untreated” value (T3 and T4; [2])?
A: +34%

Q: And the T3 (T3 and T4; [3])?
A: 0.664± 0.137

Q: And the T4 (T3 and T4; [3])?
A: 28.2± 0.8

Q: What about the “T3 change vs untreated” value (T3 and T4; [4]) of the same compound?
A: +11%

Q: What about the T4/T3 (T3 and T4; [4]) of the same compound?
A: 54.27

Q: What about the “T4/T3 change vs untreated” value (T3 and T4; [4]) of the same compound?
A: +10%

Q: And the “T4 change vs untreated” value (T3 and T4; [4])?
A: +20%

Q: And the T3 (T3 and T4; C57BL/6 female, age 22 months, 5 months of melatonin treatment, serum)?
A: 0.691± 0.077

Q: What about the “aging-related increase of lipids in blood” value (lipids in blood) of the same compound?
A: corrects the aging-related increase of lipids in blood
